In ChEMBL document CHEMBL1123182, “Synthesis and biological properties of chitin synthetase inhibitors resistant to cellular peptidases” (J Med Chem, 1986):
Values after ≈ are worked out from the molar mass of the structure shown.

Columns and labels:
Chitin synthase 1 [1] = target: T1, Chitin synthase 1 (Candida albicans, UniProt P23316); assay: Inhibition constant (KI) for the mmf chitin synthetase assay performed at constant inhibitor and varying substrate concentrations
Candida albicans [2] = assay: Millimolar concentration of the lowest concentration that clearly inhibited the cell growth of Candida albicans was determined; format: functional
[3] = target: Chitin synthase 1 (Candida albicans) (UniProt P23316); assay: Compound was tested for the inhibitory activity against chitin synthetase in the permeabilised cell assay
Chain of Chitin synthase 1 (Candida albicans) (P23316 whole entry, looked up): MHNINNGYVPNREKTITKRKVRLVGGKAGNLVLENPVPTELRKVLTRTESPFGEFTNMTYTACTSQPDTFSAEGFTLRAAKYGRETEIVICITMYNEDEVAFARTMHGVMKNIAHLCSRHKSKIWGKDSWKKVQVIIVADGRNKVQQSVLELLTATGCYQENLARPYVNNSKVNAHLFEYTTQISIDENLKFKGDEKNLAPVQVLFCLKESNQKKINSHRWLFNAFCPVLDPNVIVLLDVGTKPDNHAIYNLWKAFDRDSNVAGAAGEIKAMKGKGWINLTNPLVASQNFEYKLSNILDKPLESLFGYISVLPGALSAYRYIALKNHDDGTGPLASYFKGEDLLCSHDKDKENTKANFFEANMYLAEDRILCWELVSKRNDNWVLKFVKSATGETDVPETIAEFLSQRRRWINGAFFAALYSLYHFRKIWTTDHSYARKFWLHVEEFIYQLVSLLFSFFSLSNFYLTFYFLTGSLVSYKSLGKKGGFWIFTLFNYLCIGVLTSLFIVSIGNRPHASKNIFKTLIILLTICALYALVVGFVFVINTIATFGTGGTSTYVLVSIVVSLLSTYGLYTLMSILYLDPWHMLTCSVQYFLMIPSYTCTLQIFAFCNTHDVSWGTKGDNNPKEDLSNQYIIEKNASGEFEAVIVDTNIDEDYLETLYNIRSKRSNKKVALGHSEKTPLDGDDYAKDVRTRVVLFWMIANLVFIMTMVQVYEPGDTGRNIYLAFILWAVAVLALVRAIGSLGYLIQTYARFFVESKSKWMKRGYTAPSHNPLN

Candida albicans [4] = assay: Concentration at which 50% of the Candida albicans cells were not viable; format: functional
Candida albicans [5] = assay: Millimolar concentration at which some morphological effects in Candida albicans cells (about 5% of cells) was determined; format: functional; conditions: read-out: MEC
[6] = target: Chitin synthase 1 (Candida albicans) (UniProt P23316); assay: Compound was tested for the inhibitory activity against chitin synthetase in the mixed membrane preparation from Candida albicans; format: cell membranes
Chitin synthase 1 [7] = target: T1, Chitin synthase 1; assay: Compound was tested for the inhibitory activity against chitin synthetase
Candida albicans [8] = assay: Compound was tested for the inhibitory activity against Candida albicans cell growth; format: functional

T1 sequence (P23316 whole entry): as the sequence (P23316 whole entry, looked up) above

Compound	Ki (Chitin synthase 1 [1]) [µM]	MIC (Candida albicans [2]) [µM]	ID50 [3] [µM]	concentration killing 50% of cells (Candida albicans [4]) [mM]	minimal effective concentration (Candida albicans [5]) [µM]	ID50 [6] [µM]	Ki (Chitin synthase 1 [7]) [µM]	Viability (Candida albicans [8]) [mM]
CCCCC(N)C(=O)NC(C(N)=O)[C@H]1O[C@@H](n2ccc(=O)[nH]c2=O)[C@H](O)[C@@H]1O (some centres not stated)	246	> 1000	> 100	>4	> 4000	200	–	–
NOC(Cc1ccccc1)C(=O)NC(C(=O)O)[C@H]1O[C@@H](n2ccc(=O)[nH]c2=O)[C@H](O)[C@@H]1O (some centres not stated)	978	3000 (≈ 1350 µg/mL)	> 100	>3	> 3000	100	–	–
NC(Cc1ccccc1)C(=O)N/C(=C/c1ccccc1)C(=O)NC(C(=O)O)[C@H]1O[C@@H](n2ccc(=O)[nH]c2=O)[C@H](O)[C@@H]1O (some centres not stated)	–	> 2000	80	–	> 2000	40	11.3	>2
NC(=O)OCC(O)C(O)C(N)C(=O)NC(C(=O)O)[C@H]1O[C@@H](n2cc(C(=O)O)c(=O)[nH]c2=O)[C@H](O)[C@@H]1O (some centres not stated)	0.59	60 (≈ 31.3 µg/mL)	1	1	20	–	–	–
CCCNC(CC(C)C)C(=O)NC(C(=O)O)[C@H]1O[C@@H](n2ccc(=O)[nH]c2=O)[C@H](O)[C@@H]1O (some centres not stated)	–	2500 (≈ 1110 µg/mL)	> 100	–	> 2500	> 100	145	>1
N[C@@H](Cc1c[nH]c2ccccc12)C(=O)NC(C(=O)O)[C@H]1O[C@@H](n2ccc(=O)[nH]c2=O)[C@H](O)[C@@H]1O (some centres not stated)	1060	> 1000	> 100	>4	4000	> 100	–	–
CCCCCCCC(=O)NC(Cc1ccccc1)C(=O)NC(C(=O)NC(C(=O)O)[C@H]1O[C@@H](n2cc(C(=O)O)c(=O)[nH]c2=O)[C@H](O)[C@@H]1O)C(O)C(O)COC(N)=O (some centres not stated)	–	1000 (≈ 795 µg/mL)	50	–	1000	47.5	7.15	>1
CCCCC(NC)C(=O)NC(C(=O)O)[C@H]1O[C@@H](n2ccc(=O)[nH]c2=O)[C@H](O)[C@@H]1O (some centres not stated)	218	> 1000	97.5	>4	20	120	–	–
